Measurements taken from patent publication US20240415819A1, “MACROCYCLIC COMPOUNDS AS PROTEASOME SUBUNIT BETA TYPE-5 INHIBITORS” (Lead Discovery Center GmbH, priority 2021, published 2024).
pIC50: −log10 of the molar value.

Assays:
[1] = tested on: RPMI 8226 (B lymphocyte cell line, multiple myeloma); test: 48 hr CTG viability assay, RPMI 8226; type: cell-based; conditions: Homo sapiens, RPMI-8226; 48 hr CTG; read-out: RPMI-8226 IC50
How it was run: (§1)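 Growth inhibition by compound over 48 h; IC50 (nM) derived from duplicate CellTiter-Glo luminescence readings across 0.0015–10 uM.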

[2] = tested on: A549 (human lung carcinoma cell line); test: Glo assay of A549 cells (Table 3; ProteasomeGlo plating scheme); type: cell-based; conditions: Homo sapiens; A549 cells; read-out: PGLo A549
How it was run: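 Luminescent read-out of cellular chymotrypsin-like proteasome activity: cells exposed to compound 105 min at 37° C., 5% CO2, then given Suc-LLVY-Glo reagent, shaken 2-5 min and kept dark 10-15 min before reading. Values are IC50 [nM].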

[3] = target: T1, β5 subunit of the human immunoproteasome (IPS) (Homo sapiens, UniProt P28062); test: β5 inhibition assay, human immunoproteasome (Suc-LLVY-AMC); type: biochemical; conditions: IC50 class, Suc-LLVY-AMC substrate
T1 construct: purchased Boston Biochem E-370
How it was run: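 Human immunoproteasome (1 nM final) was preincubated 10 min at RT with compound in 100 mM HEPES pH 7.5, 50 mM NaCl, 0.02% SDS, 1 mM DTT. Suc-LLVY-AMC (22.6 μM final) was then added for 4 h at RT in the dark. After stopping with 1 μM bortezomib, AMC fluorescence was read (ex 355/em 460 nm).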

[4] = tested on: Hs 746T (human gastric carcinoma cell line); test: 48 hr CTG viability assay, Hs 746T; type: cell-based; conditions: Hs746T, 48 hr CTG, read-out: Hs 746T IC50
How it was run: as §1

[5] = tested on: MM1 S (B lymphoblast cell line); test: 48 hr CTG viability assay, MM1S; type: cell-based; conditions: Homo sapiens, 48 hr CTG, read-out: MM1S IC50
How it was run: as §1

[6] = target: T2, β5 subunit of the human constitutive proteasome (CPS) (Homo sapiens, UniProt P28074); test: β5 inhibition assay, human constitutive proteasome (Suc-LLVY-AMC); type: biochemical; conditions: IC50 class, Suc-LLVY-AMC substrate
T2 construct: purchased Boston Biochem E-360
Protocol: The enzymatic activity of the β5 subunit of the human constitutive proteasome (CPS) is analyzed. In another assay, which differs from the assay of the human constitutive proteasome only in using the human immunoproteasome (IPS) the enzymatic activity of the β5 subunit of the human immunoproteasome (IPS) is analyzed. […] Inhibition is indicated as IC50 [nM] (“-”=not measured).

Row | pIC50 [1] | pIC50 [2] | pIC50 [3] | pIC50 [4] | pIC50 [5] | pIC50 [6] | Compound
1 | > 7.00 | > 7.00 | > 7.00 | > 7.00 | > 7.00 | > 7.00 | Cc1ccc2cc1CNC(=O)[C@H](CCc1ccccc1)NC(=O)[C@@H](NC(=O)CCOCCC1CCC1)CC(=O)N1CCCC(CCO2)C1 (stereo partly drawn) [Compound 627, 3-(2-cyclobutylethoxy)-N-((9S,12S)-5^4-methyl-8,11,14-trioxo-9-phenethyl-4-oxa-7,10-diaza-1(3,1)-piperidina-5(1,3)-benzenacyclotetradecaphane-12-yl)propanamide]
2 | > 7.00 | > 7.00 | > 7.00 | > 7.00 | > 7.00 | > 7.00 | Cc1ccc2cc1CNC(=O)[C@H](CCc1ccccc1)NC(=O)[C@@H](NC(=O)C1CCCCC1)CC(=O)N1CCCC(CCO2)C1 (stereo partly drawn) [Compound 643, N-((9S,12S)-5^4-methyl-8,11,14-trioxo-9-phenethyl-4-oxa-7,10-diaza-1(3,1)-piperidina-5(1,3)-benzenacyclotetradecaphane-12-yl)cyclohexanecarboxamide]
3 | > 7.00 | > 7.00 | > 7.00 | > 7.00 | > 7.00 | > 7.00 | Cc1ccc2cc1CNC(=O)[C@H](CCc1ccccc1)NC(=O)[C@@H](NS(=O)(=O)CC(F)(F)F)CC(=O)N1CCCC(CCO2)C1 (stereo partly drawn) [Compound 601, 2,2,2-trifluoro-N-((9S,12S)-5^4-methyl-8,11,14-trioxo-9-phenethyl-4-oxa-7,10-diaza-1(3,1)-piperidina-5(1,3)-benzenacyclotetradecaphane-12-yl)ethane-1-sulfonamide]
4 | > 7.00 | > 7.00 | > 7.00 | 6.30 to 7.00 | > 7.00 | > 7.00 | Cc1ccc2cc1CNC(=O)[C@H](CCc1ccccc1)NC(=O)[C@@H](NC(=O)C1(C)CNC1)CC(=O)N1CCCC(CCO2)C1 (stereo partly drawn) [Compound 715, 3-methyl-N-((9S,12S)-5^4-methyl-8,11,14-trioxo-9-phenethyl-4-oxa-7,10-diaza-1(3,1)-piperidina-5(1,3)-benzenacyclotetradecaphane-12-yl)azetidine-3-carboxamide]
5 | > 7.00 | > 7.00 | > 7.00 | > 7.00 | > 7.00 | > 7.00 | Cc1ccc2cc1CNC(=O)[C@H](CCc1ccc(N)cc1)NC(=O)[C@@H](NC(=O)Cc1cn3ccsc3n1)CC(=O)N1CCCC(CCO2)C1 (stereo partly drawn) [Compound 708, N-((9S,12S)-9-(4-aminophenethyl)-5^4-methyl-8,11,14-trioxo-4-oxa-7,10-diaza-1(3,1)-piperidina-5(1,3)-benzenacyclotetradecaphane-12-yl)-2-(imidazo[2,1-b]thiazol-6-yl)acetamide]
6 | > 7.00 | > 7.00 | > 7.00 | > 7.00 | > 7.00 | > 7.00 | Cc1ccc2cc1CNC(=O)[C@H](CCc1ccccc1)NC(=O)[C@@H](NC(=O)CCOc1ccccc1)CC(=O)N1CCCC(CCO2)C1 (stereo partly drawn) [Compound 591, N-((9S,12S)-5^4-methyl-8,11,14-trioxo-9-phenethyl-4-oxa-7,10-diaza-1(3,1)-piperidina-5(1,3)-benzenacyclotetradecaphane-12-yl)-3-phenoxypropanamide]
7 | > 7.00 | > 7.00 | > 7.00 | > 7.00 | > 7.00 | > 7.00 | Cc1ccc2cc1CNC(=O)[C@H](CCc1ccncc1)NC(=O)[C@@H](NC(=O)Cc1ccccc1F)CC(=O)N1CCCC(CCO2)C1 (stereo partly drawn) [Compound 737, 2-(2-fluorophenyl)-N-((9S,12S)-5^4-methyl-8,11,14-trioxo-9-(2-(pyridin-4-yl)ethyl)-4-oxa-7,10-diaza-1(3,1)-piperidina-5(1,3)-benzenacyclotetradecaphane-12-yl)acetamide]
8 | > 7.00 | > 7.00 | > 7.00 | > 7.00 | > 7.00 | > 7.00 | Cc1ccc2cc1CNC(=O)[C@H](CCc1ccccc1)NC(=O)[C@@H](NC(=O)CC1COC1)CC(=O)N1CCCC(CCO2)C1 (stereo partly drawn) [Compound 635, N-((9S,12S)-5^4-methyl-8,11,14-trioxo-9-phenethyl-4-oxa-7,10-diaza-1(3,1)-piperidina-5(1,3)-benzenacyclotetradecaphane-12-yl)-2-(oxetan-3-yl)acetamide]
9 | > 7.00 | > 7.00 | > 7.00 | > 7.00 | > 7.00 | > 7.00 | Cc1ccc2cc1CNC(=O)[C@H](CCc1ccccc1)NC(=O)[C@@H](NC(=O)CCOCCC1CC1)CC(=O)N1CCCC(CCO2)C1 (stereo partly drawn) [Compound 630, 3-(2-cyclopropylethoxy)-N-((9S,12S)-5^4-methyl-8,11,14-trioxo-9-phenethyl-4-oxa-7,10-diaza-1(3,1)-piperidina-5(1,3)-benzenacyclotetradecaphane-12-yl)propanamide]

More lines, now with the values behind:

Row | Compound | pIC50 [1] | pIC50 [2] | pIC50 [3] | pIC50 [4] | pIC50 [5] | pIC50 [6]
10 | Cc1ccc2cc1CNC(=O)[C@H](CCc1ccccc1)NC(=O)[C@@H](NC(=O)CCOCCc1ccccc1)CC(=O)N1CCCC(CCO2)C1 (stereo partly drawn) [Compound 618, N-((9S,12S)-5^4-methyl-8,11,14-trioxo-9-phenethyl-4-oxa-7,10-diaza-1(3,1)-piperidina-5(1,3)-benzenacyclotetradecaphane-12-yl)-3-phenethoxypropanamide] | > 7.00 | > 7.00 | > 7.00 | > 7.00 | > 7.00 | > 7.00
11 | Cc1ccc2cc1CNC(=O)[C@H](CCc1ccccc1)NC(=O)[C@@H](NC(=O)CCNCc1ccccc1)CC(=O)N1CCCC(CCO2)C1 (stereo partly drawn) [Compound 647, 3-(benzylamino)-N-((9S,12S)-5^4-methyl-8,11,14-trioxo-9-phenethyl-4-oxa-7,10-diaza-1(3,1)-piperidina-5(1,3)-benzenacyclotetradecaphane-12-yl)propanamide] | > 7.00 | > 7.00 | > 7.00 | > 7.00 | > 7.00 | > 7.00
12 | O=C(Cc1ccccc1)N[C@H]1CC(=O)N2CCCC(CCOc3ccc(F)c(c3)CNC(=O)[C@H](CCc3ccccc3)NC1=O)C2 (stereo partly drawn) [Compound 661, N-((9S,12S)-5^4-fluoro-8,11,14-trioxo-9-phenethyl-4-oxa-7,10-diaza-1(3,1)-piperidina-5(1,3)-benzenacyclotetradecaphane-12-yl)-2-phenylacetamide] | > 7.00 | > 7.00 | > 7.00 | > 7.00 | > 7.00 | > 7.00
13 | Cc1ccc2cc1CNC(=O)[C@H](CCc1ccccc1)NC(=O)[C@@H](NC(=O)CCNC1CC1)CC(=O)N1CCCC(CCO2)C1 (stereo partly drawn) [Compound 649, 3-(cyclopropylamino)-N-((9S,12S)-5^4-methyl-8,11,14-trioxo-9-phenethyl-4-oxa-7,10-diaza-1(3,1)-piperidina-5(1,3)-benzenacyclotetradecaphane-12-yl)propanamide] | > 7.00 | > 7.00 | > 7.00 | > 7.00 | > 7.00 | > 7.00
14 | Cc1ccc2cc1CNC(=O)[C@H](CCc1ccccc1)NC(=O)[C@@H](NC(=O)CCOC1CC3(CNC3)C1)CC(=O)N1CCCC(CCO2)C1 (stereo partly drawn) [Compound 725, 3-((2-azaspiro[3.3]heptan-6-yl)oxy)-N-((9S,12S)-5^4-methyl-8,11,14-trioxo-9-phenethyl-4-oxa-7,10-diaza-1(3,1)-piperidina-5(1,3)-benzenacyclotetradecaphane-12-yl)propanamide] | 6.30 to 7.00 | > 7.00 | > 7.00 | 6.30 to 7.00 | 6.30 to 7.00 | > 7.00
15 | CC(=O)N1CC(CC(=O)N[C@H]2CC(=O)N3CCCC(CCOc4ccc(C)c(c4)CNC(=O)[C@H](CCc4ccccc4)NC2=O)C3)C1 (stereo partly drawn) [Compound 697, 2-(1-acetylazetidin-3-yl)-N-((9S,12S)-5^4-methyl-8,11,14-trioxo-9-phenethyl-4-oxa-7,10-diaza-1(3,1)-piperidina-5(1,3)-benzenacyclotetradecaphane-12-yl)acetamide] | > 7.00 | > 7.00 | > 7.00 | > 7.00 | > 7.00 | > 7.00
16 | Cc1ccc2cc1CNC(=O)[C@H](CCc1ccccc1)NC(=O)[C@@H](N1CCCC1=O)CC(=O)N1CCCC(CCO2)C1 (stereo partly drawn) [Compound 728, (9S,12S)-5^4-methyl-12-(2-oxopyrrolidin-1-yl)-9-phenethyl-4-oxa-7,10-diaza-1(3,1)-piperidina-5(1,3)-benzenacyclotetradecaphane-8,11,14-trione] | 6.30 to 7.00 | 6.00 to 6.30 | 6.30 to 7.00 | 5.30 to 6.00 | 6.30 to 7.00 | 6.30 to 7.00
